Measured values as given in patent publication US20100144708A1, “HETEROCYCLIC COMPOUNDS CONTAINING NITROGEN ATOMS OR PHARMACEUTICALLY ACCEPTABLE SALTS THEREOF, PROCESS FOR THE PREPARATION THEREOF AND PHARMACEUTICAL COMPOSITION COMPRISING THE SAME FOR TREATMENT OF CANCER” (Korea Research Instititute of Bioscience and Biotechnology, priority 2006, published 2010).

Assays:
Format in all cases: cell-based, Human
[1] = system: MBA-MB-231 (breast cancer); test: Test for inhibition of tumor cell growth (SRB), MBA-MB-231; conditions: 48 hours, SRB staining; for GI50: Homo sapiens
Method: (§1) Human tumor cell lines, PC-3 (prostate cancer, ATCC, USA), MBA-MB-231 (breast cancer, ATCC, USA), ACHN (kidney cancer, ATCC, USA), and NUGC-3 (gastric cancer, ATCC, USA) were cultured in RPMI 1640 media containing 10% fetal bovine serum (FBS).
(§2) In order to measure anticancer activity, a suitable concentration of cells in RPMI 1640 media containing 5% fetal bovine serum (about 5×10^4 cells/□) was aliquotted in 96-well plates, and cultured in 5% CO2 at 37° C. On day one after aliquoting the cells, before the cells were treated with the compounds, in order to determine their concentration, 50[…] of 50% trichloroacetic acid was added to each well of time zero (T0) plate, and cells were fixed to determine zero point. The cells treated with the compounds were fixed on each well having 50[…] of 50% trichloroacetic acid after 48 hours. The final concentrations of the test compounds were 0.01, 0.03, 0.1, 0.3, and 1[…]/□. The fixed plate was washed with water and dried, and then 100[…] of 0.4% sulphorhodamine B (SRB) dissolved in 0.1% acetic acid was added to the each well to stain the cells. The plate was allowed to stand for 30 minutes, and then washed with 0.1% acetic acid. Then, the plate was dried at room temperature, and treated with 10 mM tris base (pH 10.5) to dissolve staining reagent. An absorbance measured at 540 nm was calculated as a percentage of the control group, and then the concentration of the compound that inhibited tumor cell growth (GI50(□/□)) by 50% was determined.

[2] = system: PC-3 (prostate cancer); test: Test for inhibition of tumor cell growth (SRB), PC-3; conditions: 48 hours, SRB staining; for GI50: Homo sapiens, read-out: GI50 PC-3 (prostate ancer)
Method: as §1, §2

[3] = system: ACHN (kidney cancer); test: Test for inhibition of tumor cell growth (SRB), ACHN; conditions: 48 hours, SRB staining; for GI50: Homo sapiens, ACHN
Method: as §1, §2

[4] = system: NUGC-3 (gastric cancer); test: Test for inhibition of tumor cell growth (SRB), NUGC-3; conditions: 48 hours, SRB staining; for GI50: Homo sapiens, NUGC-3
Method: as §1, §2

## CCCCCCCCCCCCCCCCCC(=O)N1CC[N+](C)(Cc2ccccc2)CC1 [Example 25, 1-benzyl-1-methyl-4-octadecanoyl-piperazin-1-ium bromide]
[1]
  GI50: 0.82 µg/mL
[2]
  GI50: 0.4 µg/mL
[3]
  GI50: 2.84 µg/mL
[4]
  GI50: 1.05 µg/mL

## C=CC[N+]1(C)CCN(C(=O)CCCCCCCCCCCCCCCCC)CC1 [Example 26, 1-allyl-1-methyl-4-octadecanoyl-piperazin-1-ium bromide]
[1]
  GI50: 1.13 µg/mL
[2]
  GI50: 0.54 µg/mL
[3]
  GI50: 1.79 µg/mL
[4]
  GI50: 0.88 µg/mL

## CCCCCCCCCCCCCCCCCC(=O)N1CC[N+](C)(CC)CC1 [Example 27, 1-ethyl-1-methyl-4-octadecanoyl-piperazin-1-ium iodide]
[1]
  GI50: 1.43 µg/mL
[2]
  GI50: 0.41 µg/mL
[3]
  GI50: 1.36 µg/mL
[4]
  GI50: 0.67 µg/mL

## CCCCCCCCCCCCCCCCCC(=O)N1CC[N+](CC)(Cc2ccccc2)CC1 [Example 28, 1-benzyl-1-ethyl-4-octadecanoyl-piperazin-1-ium bromide]
[1]
  GI50: > 10 µg/mL
[2]
  GI50: 3.64 µg/mL
[3]
  GI50: > 10 µg/mL
[4]
  GI50: 5.21 µg/mL

## C=CC[N+]1(CC)CCN(C(=O)CCCCCCCCCCCCCCCCC)CC1 [Example 29, 1-allyl-1-ethyl-4-octadecanoyl-piperazin-1-ium bromide]
[1]
  GI50: 2.51 µg/mL
[2]
  GI50: 0.84 µg/mL
[3]
  GI50: 2.43 µg/mL
[4]
  GI50: 1.37 µg/mL

## CCCCCCCCCCCCCCCCCCCC(=O)N1CC[N+](C)(CC)CC1 [Example 30, 1-ethyl-4-icosanoyl-1-methylpiperazin-1-ium iodide]
[1]
  GI50: 1.71 µg/mL
[2]
  GI50: 0.34 µg/mL
[3]
  GI50: 1.23 µg/mL
[4]
  GI50: 0.61 µg/mL

## CCCCCCCCCCCCCCCCCCCC(=O)N1CC[N+](C)(C)CC1 [Example 31, 4-icosanoyl-1,1-dimethylpiperazin-1-ium iodide]
[1]
  GI50: 1.63 µg/mL
[2]
  GI50: 0.31 µg/mL
[3]
  GI50: 1.39 µg/mL
[4]
  GI50: 0.42 µg/mL

## CCCCCCCCCCCCCCCCCCCC(=O)N1CC[N+](C)(Cc2ccccc2)CC1 [Example 32, 1-benzyl-4-icosanoyl-1-methylpiperazin-1-ium bromide]
[1]
  GI50: 1.66 µg/mL
[2]
  GI50: 0.59 µg/mL
[3]
  GI50: 1.89 µg/mL
[4]
  GI50: 1.1 µg/mL

## C=CC[N+]1(C)CCN(C(=O)CCCCCCCCCCCCCCCCCCC)CC1 [Example 33, 1-allyl-4-icosanoyl-1-methylpiperazin-1-ium bromide]
[1]
  GI50: > 10 µg/mL
[2]
  GI50: 4.29 µg/mL
[3]
  GI50: > 10 µg/mL
[4]
  GI50: 3.45 µg/mL

## CCCCCCCCCCCCCCCCCCCCCC(=O)N1CC[N+](C)(CC)CC1 [Example 34, 4-docosanoyl-1-ethyl-1-methylpiperazin-1-ium iodide]
[1]
  GI50: 2.01 µg/mL
[2]
  GI50: 0.85 µg/mL
[3]
  GI50: 1.9 µg/mL
[4]
  GI50: 1.22 µg/mL

## CCCCCCCCCCCCCCCCCCCCCC(=O)N1CC[N+](C)(Cc2ccccc2)CC1 [Example 35, 1-benzyl-4-docosanoyl-1-methylpiperazin-1-ium bromide]
[1]
  GI50: 1.98 µg/mL
[2]
  GI50: 1.24 µg/mL
[3]
  GI50: 4.74 µg/mL
[4]
  GI50: 1.9 µg/mL

## C=CC[N+]1(C)CCN(C(=O)CCCCCCCCCCCCCCCCCCCCC)CC1 [Example 36, 1-allyl-4-docosanoyl-1-methylpiperazin-1-ium bromide]
[1]
  GI50: 3.16 µg/mL
[2]
  GI50: 0.96 µg/mL
[3]
  GI50: 2.37 µg/mL
[4]
  GI50: 1.53 µg/mL

## CCCCCCCCCCCCCCCCCCCCCC(=O)N1CC[N+](CC)(Cc2ccccc2)CC1 [Example 37, 1-benzyl-4-docosanoyl-1-ethylpiperazin-1-ium bromide]
[1]
  GI50: > 10 µg/mL
[2]
  GI50: > 10 µg/mL
[3]
  GI50: > 10 µg/mL
[4]
  GI50: > 10 µg/mL

## C=CC[N+]1(CC)CCN(C(=O)CCCCCCCCCCCCCCCCCCCCC)CC1 [Example 38, 1-allyl-4-docosanoyl-1-ethylpiperazin-1-ium bromide]
[1]
  GI50: 2.53 µg/mL
[2]
  GI50: 1.47 µg/mL
[3]
  GI50: 3.38 µg/mL
[4]
  GI50: 1.54 µg/mL

## CCCCCCCCCCCCCCCCCCCCCCCC(=O)N1CC[N+](C)(Cc2ccccc2)CC1 [Example 40, 1-benzyl-1-methyl-4-tetracosanoylpiperazin-1-ium bromide]
[1]
  GI50: > 10 µg/mL
[2]
  GI50: 4.79 µg/mL
[3]
  GI50: > 10 µg/mL
[4]
  GI50: > 10 µg/mL

## C=CC[N+]1(C)CCN(C(=O)CCCCCCCCCCCCCCCCCCCCCCC)CC1 [Example 41, 1-allyl-1-methyl-4-tetracosanoylpiperazin-1-ium bromide]
[1]
  GI50: > 10 µg/mL
[2]
  GI50: 3.36 µg/mL
[3]
  GI50: > 10 µg/mL
[4]
  GI50: > 10 µg/mL

## CCCCCCCCCCCCCCCCCCCCCCCC(=O)N1CC[N+](C)(CC)CC1 [Example 42, 1-ethyl-1-methyl-4-tetracosanoylpiperazin-1-ium iodide]
[1]
  GI50: > 10 µg/mL
[2]
  GI50: 3.77 µg/mL
[3]
  GI50: > 10 µg/mL
[4]
  GI50: > 10 µg/mL

## C=CCCCCCCCCC(=O)N1CC[N+](C)(CC=C)CC1 [Example 43, 1-allyl-1-methyl-4-undec-10-enoyl-piperazin-1-ium bromide]
[1]
  GI50: > 10 µg/mL
[2]
  GI50: 1.32 µg/mL
[3]
  GI50: > 10 µg/mL
[4]
  GI50: > 10 µg/mL

## C=CCCCCCCCCC(=O)N1CC[N+](C)(Cc2ccccc2)CC1 [Example 44, 1-benzyl-1-methyl-4-undec-10-enoyl-piperazin-1-ium bromide]
[1]
  GI50: > 10 µg/mL
[2]
  GI50: 0.41 µg/mL
[3]
  GI50: > 10 µg/mL
[4]
  GI50: > 10 µg/mL

## C=CCCCCCCCCC(=O)N1CC[N+](C)(C)CC1 [Example 45, 1,1-dimethyl-4-undec-10-enoyl-piperazin-1-ium iodide]
[1]
  GI50: > 10 µg/mL
[2]
  GI50: 2.02 µg/mL
[3]
  GI50: > 10 µg/mL
[4]
  GI50: > 10 µg/mL

## CCCCCCCCCCCCCCCC(=O)N1CC[N+](CC)(Cc2cccc([N+](=O)[O-])c2)CC1 [Example 47, 1-ethyl-1-(3-nitrobenzyl)-4-palmitoylpiperazin-1-ium bromide]
[1]
  GI50: > 10 µg/mL
[2]
  GI50: 4.57 µg/mL
[3]
  GI50: 5.13 µg/mL
[4]
  GI50: 3.64 µg/mL

## CCCCCCCCCCCCCCCCCC(=O)N1CC[N+](CC)(Cc2ccc(F)cc2)CC1 [Example 48, 1-ethyl-1-(4-fluorobenzyl)-4-stearoylpiperazin-1-ium bromide]
[1]
  GI50: 1.49 µg/mL
[2]
  GI50: 0.68 µg/mL
[3]
  GI50: 1.43 µg/mL
[4]
  GI50: 1.19 µg/mL

## CCCCCCCCCCCCCCCCCC(=O)N1CC[N+](CC)(Cc2cccc([N+](=O)[O-])c2)CC1 [Example 49, 1-ethyl-1-(3-nitrobenzyl)-4-stearoylpiperazin-1-ium bromide]
[1]
  GI50: 5.38 µg/mL
[2]
  GI50: 3.14 µg/mL
[3]
  GI50: 3.08 µg/mL
[4]
  GI50: 3.63 µg/mL

## CCCCCCCCCCCCCCCCCC(=O)N1CC[N+](CC)(Cc2ccc(Br)cc2)CC1 [Example 50, 1-(4-bromobenzyl)-1-ethyl-4-stearoylpiperazin-1-ium bromide]
[1]
  GI50: 2.3 µg/mL
[2]
  GI50: 0.95 µg/mL
[3]
  GI50: 1.94 µg/mL
[4]
  GI50: 2.49 µg/mL

## CCCCCCCCCCCCCC(=O)N1CC[N+](CC)(Cc2cccc(F)c2)CC1 [Example 51, 1-ethyl-1-(3-fluorobenzyl)-4-tetradecanoylpiperazin-1-ium bromide]
[1]
  GI50: 1.42 µg/mL
[2]
  GI50: 0.52 µg/mL
[3]
  GI50: 1.85 µg/mL
[4]
  GI50: 1.05 µg/mL

## CCCCCCCCCCCCCC(=O)N1CC[N+](CC)(Cc2cccc(C)c2)CC1 [Example 52, 1-ethyl-1-(3-methylbenzyl)-4-tetradecanoylpiperazin-1-ium bromide]
[1]
  GI50: 1.6 µg/mL
[2]
  GI50: 0.51 µg/mL
[3]
  GI50: 2.08 µg/mL
[4]
  GI50: 0.88 µg/mL

## CCCCCCCCCCCC(=O)N1CC[N+](CC)(Cc2cccc([N+](=O)[O-])c2)CC1 [Example 53, 4-dodecanoyl-1-ethyl-1-(3-nitrobenzyl)piperazin-1-ium bromide]
[1]
  GI50: 3.95 µg/mL
[2]
  GI50: 0.57 µg/mL
[3]
  GI50: 4.84 µg/mL
[4]
  GI50: 3.52 µg/mL

## CCCCCCCCCCCC(=O)N1CC[N+](CC)(Cc2cccc(F)c2)CC1.[Br-] [Example 54]
[1]
  GI50 MBA-MB-231 (breast cancer): 4.71 µg/mL
[2]
  GI50 PC-3 (prostate ancer): 0.53 µg/mL
[3]
  GI50 ACHN (kidney cancer): 3.78 µg/mL
[4]
  GI50 NUGC-3 (gastric cancer): 1.61 µg/mL

## CCCCCCCCCCCCCCCCCC(=O)N1CC[N+](CC)(Cc2cccc(C)c2)CC1 [Example 58, 1-ethyl-1-(3-methylbenzyl)-4-stearoylpiperazin-1-ium bromide]
[1]
  GI50: 1.52 µg/mL
[2]
  GI50: 0.63 µg/mL
[3]
  GI50: 0.93 µg/mL
[4]
  GI50: 0.46 µg/mL

## CCCCCCCCCCCCCCCCCCS(=O)(=O)N1CC[N+](C)(CC)CC1 [Example 59, 1-ethyl-1-methyl-4-(octadecane-1-sulfonyl)piperazin-1-ium iodide]
[1]
  GI50: 2.05 µg/mL
[2]
  GI50: 0.84 µg/mL
[3]
  GI50: 1.07 µg/mL
[4]
  GI50: 0.66 µg/mL

## C=CC[N+]1(CC)CCN(S(=O)(=O)CCCCCCCC)CC1 [Example 60, 1-allyl-1-ethyl-4-(octane-1-sulfonyl)piperazin-1-ium bromide]
[1]
  GI50: > 10 µg/mL
[2]
  GI50: > 10 µg/mL
[3]
  GI50: > 10 µg/mL
[4]
  GI50: > 10 µg/mL

## C=CC[N+]1(C)CCN(S(=O)(=O)CCCCCCCC)CC1 [Example 61, 1-allyl-1-methyl-4-(octane-1-sulfonyl)piperazin-1-ium bromide]
[1]
  GI50: > 10 µg/mL
[2]
  GI50: > 10 µg/mL
[3]
  GI50: > 10 µg/mL
[4]
  GI50: > 10 µg/mL
